Test results reported in patent US20190282632A1, “METHODS AND PRODUCTS FOR MODULATING MICROBIOTA COMPOSITION FOR IMPROVING THE EFFICACY OF A CANCER TREATMENT WITH AN IMMUNE CHECKPOINT BLOCKER” (INSTITUT GUSTAVE ROUSSY, priority 2014, published 2019).
“Also recorded” adds a separate entry of the source. Read-outs that look alike come from different tables or passages of the source.

Key:
MCA205 sarcoma = test: Tumor growth of established MCA205 sarcoma under anti-CTLA4 (9D9) therapy, with antibiotics, gene-deficient hosts, co-administered mAbs or oral bacteria; details: for Effect of antibiotic regimen on the antitumor effects of 9D9 Ab against MCA205 sarcomas: SPF mice, antibiotics in drinking water
Protocol: Mice were subcutaneously injected into the right flank with 1×10^6 MCA205-0VA or MC38, or with 0.2×10^6 CT26 tumor cell lines. When tumors reached a size of 25 to 40 mm^2 (day 0), mice were injected intraperitoneally (i.p) with 100 μg of anti-CTLA-4 mAb (clone 9D9) or isotype control (clone MPC11). Mice were injected 5 times at 3-day intervals with 9D9, and tumor size was routinely monitored by means of a caliper. In order to evaluate the synergistic effect of vancomycin and anti-CTLA4, a prophylactic setting was established. […] In experiments using anti-IL-12p40 mAb (clone C17.8, 500 μg per mouse) or anti-Ly6G mAb (clone 1A8, 200 μg per mouse), mAbs (or their isotype controls, clone 2A3 in both cases) were injected i.p. every 2 days starting from day 0 until the final anti-CTLA-4 injection. […] All mAbs for in vivo use were obtained from BioXcell (West Lebanon, N.H., USA), using the recommended isotype control mAbs. The inhibitor of iNOS, NG-monomethyl-L-arginine (L-NMMA; Sigma), was administered in PBS daily to mice i.p. at a dose of 2 mg per mouse from the start of anti-CTLA4 treatment.
Mice were treated with antibiotics 2-3 weeks before tumor implantation and continued on antibiotics until the end of the experiment. A mix of ampicillin (1 mg/ml), streptomycin (5 mg/ml), and colistin (1 mg/ml) (Sigma-Aldrich), or vancomycin alone (0.25 mg/ml), or imipenem alone (0.25 mg/ml), or colistin alone (2.103 U/ml) were added in sterile drinking water. Solutions and bottles were changed 2-3 times a week, or daily for experiments with imipenem. Antibiotic activity was confirmed by macroscopic changes observed at the level of caecum (dilatation) and by cultivating the fecal pellets resuspended in BHI+15% glycerol at 0.1 g/ml on blood agar plates for 48 h at 37° C. with 5% CO2 in aerobic or anaerobic conditions.
For inoculation of GF mice or mice treated with broad-spectrum antibiotics, colonization was performed the day following the first anti-CTLA4 injection by oral gavage with 100 μl of suspension containing 1×10^9 bacteria. Efficient colonization was checked by culture of feces 48 h post oral gavage. Bacteroides fragilis, Bacteroides thetaiotaomicron, Bacteroides distasonis, Bacteroides uniformis, Lactobacillus plantarum and Enterococcus hirae were grown on COS agar plates (Biomerieux) for 48 h at 37° C. with 5% CO2 in anaerobic conditions. E. coli and Burkholderia cepacia were grown on COS agar plates for 24 h at 37° C. with 5% CO2 in aerobic conditions. Bacteria were harvested from the agar plates, suspended in sterile PBS, centrifuged and washed once with PBS, then resuspended in sterile PBS at an optical density (600 nm) of 1, which corresponds approximately to 1×10^9 colony-forming units (CFU)/ml. In cases where more than one bacteria was administered, an equal volume of each bacteria suspension was mixed to give a suspension of equal proportion of each type of bacteria, to a total 1×10^9 bacteria/ml. For bacteria reconstitution experiments using mice previously treated with antibiotics, antibiotics treatment was stopped after 2-3 weeks at the first anti-CTLA4 injection, and mice were orally gavaged with 1×10^9 CFU the following day. B. distasonis, B. uniformis, E. hirae, and E. coli isolates used in the experiments were originally isolated from feces or mesenteric lymph nodes of SPF mice treated with anti-CTLA4 and identified as described above. […] LPS-EK and LTA-SA (Invivogen) were administrated by oral gavage, at a dose of 500 μg per mouse.

[1] = test system: bacterial families and orders in feces; test: 454 pyrosequencing of 16S rRNA gene amplicons of feces from tumor bearers
Protocol: Fecal samples used in this study were collected before or after one injection of anti-CTLA4 (or isotype control) from mice under vancomycin regimen or water, and were kept at −80° C. until further analysis. Library preparation and sequencing were conducted at GATC Biotech AG (Konstanz, Germany).

[2] = test system: small intestine and colon; test: Histology and histopathological scoring of gut tissue; assay type: in vivo, mice; details: vancomycin-treated tumor bearers
Protocol: The whole small intestine (duodenum, jejunum and ileum) and the colon were removed, cleaned from feces and fixed in 4% PFA for 1 h. Rehydratation of the tissue was performed in 15% sucrose for 1 h and in 30% sucrose overnight. Small intestines or colons were cut longitudinally, with the resulting ribbons rolled, then embedded in optimum cutting temperature (OCT) compound (Sakura), snap frozen, and longitudinal 6 μm sections were prepared. For histological analysis, longitudinal sections were counterstained with hematoxilin and eosin. For histological quantitative analysis, inflammatory foci, appearance of the submucosa, length of villi, and the thickness of lamina propria were scored for each section by a pathologist.

metastatic melanoma = details: cited from earlier work; for Durable disease control: after more than 7 years of follow-up, MM
[3] = test system: gut microbiome of metastatic melanoma patients; test: Pyrosequencing of 16S rRNA gene amplicons of patients' feces and clustering into enterotypes A, B, C; assay type: in vivo, human
Protocol: (§1) All clinical studies were conducted after informed consent of the patients, following the guidelines of the Declaration of Helsinki. Peripheral blood mononuclear cells (PBMC) were provided by Gustave Roussy (Villejuif, France) and by the Department of Radiation Oncology (New York University, New York, N.Y., USA). Patients were included in the following protocols: LUDWIG: MAGE3 protein—based vaccines (25), Meladex vaccine Phase I trial (26), Mel-Ipi-Rx, NCT01557114 (European Union Drug Regulating Authorities clinical trial EudraCT 2010-020317-93) and a pilot study approved by the Kremlin Bicetre Hospital Ethics Committee (n° SC12-018; ID RCB: 2012-A01496-37). Ipilimumab/radiotherapy abscopal effect trials in MM and NSCLC at NYU (Study code: NCT01689974, Study code: NCT0222173). MM patients at baseline were investigated prior to vaccine injections in the Ludwig and Meladex protocols. For memory T cell responses, blood samples were drawn from patients before and after 3 or 4 cycles of ipilimumab. Pyrosequencing analyses of 16S rRNA of gene amplicons in patients feces pre- and post-injections of ipilimumab (V0, V1, V2) were performed according to n° SC12-018; ID RCB: 2012-A01496-37 pilot study endpoints by GATC Biotech AG (Konstanz, Germany).
GOLD: Prospective immunomonitoring study of patients with metastatic melanoma receiving four injections of Ipilimumab every three weeks. In addition to peripheral blood sampling for memory T cell responses assessment, feces were collected before each Ipilimumab injection. Feces samples were frozen at −80° C. and sent for 16RNA pyrosequencing analysis at GATC Biotech AG (Konstanz, Germany).

CD4+CD45RO+ T cells = test: Recall of human CD4+ T cell responses directed against commensals (IFNγ, IL-10); assay type: cell-based
Protocol: as §1
Assessing CD4^+ T cell memory responses. Murine systems. Bone marrow-derived dendritic cells (BM-DCs) were generated from femurs and tibiae of C57BL/6 mice, cultured for 7 days in Iscove's medium (Sigma-Aldrich) with J558 supernatant (final GM-CSF concentration of 40 ng/ml), 10% FCS, 100 IU/ml penicillin/streptomycin, 2 mM L-glutamine, 50 μM 2-mercaptoethanol (Sigma-Aldrich) and split every 3-4 days. At day 7, BM-DCs were infected with the isolated bacterial strains at multiplicity of infection (MOI) of 10 or 50, for 1 h at 37° C. in complete Iscove's medium without antibiotics, onto specific low binding 6 wells plates (Sigma). Cells were then washed with PBS and incubated in complete Iscove's medium supplemented with gentamicin (50 μg/ml) to kill extracellular bacteria. For Burkholderia cepacia, the antibiotic meropenem (2 μg/mL, Astra Zeneca) was required. After 24 h, BM-DCs were cultured together with CD4^+ T cells purified from the spleens of mice that had received 7 days treatment of anti-CTLA4 mAb (i.e 3 anti-CTLA4 mAb injections, as detailed above) in complete RPMI medium. CD4^+ T cells were isolated by depletion of non CD4^+ T cells using a cocktail of biotin-conjugated antibodies against CD8a, CD11b, CD11c, CD19, CD45R (B220), CD49b (DX5), CD105, Anti-MHC-class II, Ter-119 and TCRγ/δ as primary labeling reagent. The cells were then magnetically labeled with Anti-Biotin MicroBeads (Miltenyi Biotec, France). […]

For `CNC(=N)NCCC[C@H](N)C(=O)O` [L-NMMA, NG-monomethyl-L-arginine], which “9D9 mAb-induced tumoricidal activity upon neutralization of nitric oxide” value (MCA205 sarcoma; 2 mg per mouse daily i.p.) is on record?
The value was “failed to affect; also recorded: did not alter the antitumor effects”.

Which “Effect of antibiotic regimen on the antitumor effects of 9D9 Ab against MCA205 sarcomas” value (from here on “Effect of antibiotic regimen”) (MCA205 sarcoma) does the source give for `CN[C@H](CC(C)C)C(=O)N[C@H]1C(=O)N[C@@H](CC(N)=O)C(=O)N[C@H]2C(=O)N[C@H]3C(=O)N[C@H](C(=O)N[C@H](C(=O)O)c4cc(O)cc(O)c4-c4cc3ccc4O)[C@H](O)c3ccc(c(Cl)c3)Oc3cc2cc(c3O[C@@H]2O[C@H](CO)[C@@H](O)[C@H](O)[C@H]2O[C@H]2C[C@](C)(N)[C@H](O)[C@H](C)O2)Oc2ccc(cc2Cl)[C@H]1O` [Vancomycin, vancomycin] here?
Its value is “boosted the antitumor effects; also recorded: augments the tumoricidal effects”.

And the “Effect of antibiotic regimen” value (MCA205 sarcoma; listed as vancomycin)?
The value was “ameliorated the tumor growth reduction”.

What about the “Depletion of Bacteroidales and Burkholderiales provoked by CTLA4 blockade” value ([1]; vancomycin conditioning) of the same compound?
The value was “prevented the depletion; also recorded: prevented the loss”.

And the “Representation of Bacteroidales (and Enterobacteriales) at the expense of Clostridiales” value ([1]; vancomycin in drinking water)?
Its value is “overrepresentation”.

And the “Histopathological score of colonic mucosae under anti-CTLA4” value [2]?
Its value is “worsened the histopathological score”.

What does the source list for Ipilimumab?
Durable disease control (metastatic melanoma): about 20%; Durable disease control (metastatic melanoma; listed as ipilimumab): approximately 20%; Immune-related adverse events of grade III-IV (metastatic melanoma; human, in vivo, iv): 20%; Life threatening immune-related adverse events (metastatic melanoma; human, in vivo): < 5%; Proportion of MM patients falling into cluster C during therapy ([3]; from 26 before therapy): 39%; Proportion of MM patients belonging to cluster B during therapy ([3]; from 58 before therapy): 39%; Stools of a B pattern that turned into the C favorable enterotype ([3]; paired analysis of feces in 12 cases, 2 out of 7): 29%; Decreased commensal-specific Th1 immunity of cancer patients (CD4+CD45RO+ T cells; at least in some cases): restored; IL-10 production by T cells responding to Bf, B. thetaiotaomicron and to some extent Burkholderia cepacia (CD4+CD45RO+ T cells; melanoma patients, after at least 2 injections): inhibited; IFNγ secretion by T cells responding to Bf and B. thetaiotaomicron (CD4+CD45RO+ T cells; melanoma patients, after at least 2 injections, not E. coli, E. faecalis or irrelevant bacteria): significantly increased; B. thetaiotaomicron-specific Tr1 immune responses (CD4+CD45RO+ T cells; paired analyses on 5-12 patients): decrease

With colistin as the compound, how does the “Effect of antibiotic regimen” value (MCA205 sarcoma) read?
Its value is “compromised the antitumor effects”.

For lipoteichoic acid, which “Restoration of 9D9 mAb-induced antitumor effects lost in ACS-treated mice” value (MCA205 sarcoma; oral administration, 500 μg per mouse) is on record?
The value was “failed to restore”.
